In PMC3313677 (Biochemistry, 2012) one finds Ki data, which are given here for six molecules.

For orientation: Ki means the dissociation constant of the complex between target and ligand, obtained from inhibition or displacement.

Assay [1] concerns the target Mandelate racemase (MR, EC 5.1.2.2). The note with it: cited from earlier work.
A further assay has as its target V26F MR (Pseudomonas putida, UniProt P11444, V26F). The assay can be described thus: CD-based competitive inhibition of MR variant V26F. In kind it is biochemical.
The target of the next assay is V26A/V29L MR (Pseudomonas putida, UniProt P11444, V26A/V29L). In words: CD-based competitive inhibition of MR variant V26A/V29L. The format is biochemical.
V26A/V29L MR, sequence (P11444 whole entry V26A/V29L): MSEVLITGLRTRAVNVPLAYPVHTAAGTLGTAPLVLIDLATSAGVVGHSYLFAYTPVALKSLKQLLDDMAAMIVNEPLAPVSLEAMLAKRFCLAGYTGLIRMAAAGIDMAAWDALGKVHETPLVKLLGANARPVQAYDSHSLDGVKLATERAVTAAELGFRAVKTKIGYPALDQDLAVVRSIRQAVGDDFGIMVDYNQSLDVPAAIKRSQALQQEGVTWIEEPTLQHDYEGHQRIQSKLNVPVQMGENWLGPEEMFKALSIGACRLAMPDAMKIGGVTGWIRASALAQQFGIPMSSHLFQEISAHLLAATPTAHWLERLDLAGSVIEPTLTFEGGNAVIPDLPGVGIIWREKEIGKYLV
Another assay deals with V26L MR (Pseudomonas putida, UniProt P11444, V26L). In words: CD-based competitive inhibition of MR variant V26L. In kind it is biochemical.
V26L MR, sequence (P11444 whole entry V26L): as the sequence (P11444 whole entry V26A/V29L) above, with A26L, L29V counted along it
The target in a further assay is V22F MR (Pseudomonas putida, UniProt P11444, V22F). In words: CD-based competitive inhibition of MR variant V22F. The format is biochemical.
V22F MR, sequence (P11444 whole entry V22F): as the sequence (P11444 whole entry V26A/V29L) above, with V22F, A26V, L29V counted along it
For another assay, the target named is V22I MR (Pseudomonas putida, UniProt P11444, V22I). In words: CD-based competitive inhibition of MR variant V22I. The format is biochemical.
V22I MR, sequence (P11444 whole entry V22I): as the sequence (P11444 whole entry V26A/V29L) above, with V22I, A26V, L29V counted along it
The target in another assay is V29F MR (Pseudomonas putida, UniProt P11444, V29F). The assay can be described thus: CD-based competitive inhibition of MR variant V29F. The format is biochemical.
V29F MR, sequence (P11444 whole entry V29F): as the sequence (P11444 whole entry V26A/V29L) above, with A26V, L29F counted along it
Another assay deals with T24S MR (Pseudomonas putida, UniProt P11444, T24S). The assay can be described thus: CD-based competitive inhibition of MR variant T24S. In kind it is biochemical.
T24S MR, sequence (P11444 whole entry T24S): as the sequence (P11444 whole entry V26A/V29L) above, with T24S, A26V, L29V counted along it
A further assay addresses V22A MR (Pseudomonas putida, UniProt P11444, V22A). The assay can be described thus: CD-based competitive inhibition of MR variant V22A. The format is biochemical.
A further assay addresses Y54F MR (Pseudomonas putida, UniProt P11444, Y54F). In words: CD-based competitive inhibition of MR variant Y54F. The format is biochemical.
For a further assay, the target named is F52W MR. As to conditions: read-out: Ki (competitive inhibition constant); cited from earlier work.
Another assay has as its target Y54L MR (Pseudomonas putida, UniProt P11444, Y54L). In words: CD-based competitive inhibition of MR variant Y54L. The format is biochemical.
The next assay concerns the target V29A MR (Pseudomonas putida, UniProt P11444, V29A). The assay can be described thus: CD-based competitive inhibition of MR variant V29A. In kind it is biochemical.
The target of the next assay is A25V MR (Pseudomonas putida, UniProt P11444, A25V). In words: CD-based competitive inhibition of MR variant A25V. The format is biochemical.
A25V MR, sequence (P11444 whole entry A25V): as the sequence (P11444 whole entry V26A/V29L) above, with A25V, A26V, L29V counted along it
A further assay has as its target F52W/Y54W MR. The note with it: read-out: Ki (competitive inhibition constant); cited from earlier work.
The target in the next assay is V29D MR. The note with it: read-out: Ki (competitive inhibition constant); cited from earlier work.
A further assay has as its target V26A MR (Pseudomonas putida, UniProt P11444, V26A). The assay can be described thus: CD-based competitive inhibition of MR variant V26A. In kind it is biochemical.
For another assay, the target named is E317Q MR. The note with it: read-out: Ki (competitive inhibition constant); cited from earlier work.
In the next assay the target is N197A MR. The note with it: read-out: Ki (competitive inhibition constant); cited from earlier work.
Where [2] appears, read: reversible competitive inhibitor of MR.

Molecules are shown by their SMILES. Read-outs that look alike come from different tables or passages of the source.

Y54L MR, sequence (P11444 whole entry Y54L): as the sequence (P11444 whole entry V26A/V29L) above, with A26V, L29V, Y54L counted along it
V29A MR, sequence (P11444 whole entry V29A): as the sequence (P11444 whole entry V26A/V29L) above, with A26V, L29A counted along it
V26A MR, sequence (P11444 whole entry V26A): as the sequence (P11444 whole entry V26A/V29L) above, with L29V counted along it
V26F MR, sequence (P11444 whole entry V26F): as the sequence (P11444 whole entry V26A/V29L) above, with A26F, L29V counted along it
V22A MR, sequence (P11444 whole entry V22A): as the sequence (P11444 whole entry V26A/V29L) above, with V22A, A26V, L29V counted along it
Y54F MR, sequence (P11444 whole entry Y54F): as the sequence (P11444 whole entry V26A/V29L) above, with A26V, L29V, Y54F counted along it

As for `C[C@@](O)(C(=O)O)c1ccccc1` [(S)-atrolactate], the Ki in assay [1] (ground state analogue, MR) was 150 µM.

Regarding `O=CN(O)c1ccccc1` [N-hydroxyformanilide], the Ki in assay [1] (setting [2]) is 2.8 µM.

As for `CC(=O)NO` [acetohydroxamate], the Ki in assay [1] (MR) is 27000 µM.

Turning to `O=C(NO)c1ccccc1` [benzohydroxamate], the Ki in [1] (setting [2]) was 9.3 µM; on V26F MR, 462 ± 31.7 µM; at V26A/V29L MR, 79.2 ± 3.6 µM; on V26L MR it was 440 ± 26.9 µM; at V22F MR, 229 ± 86.6 µM; at V22I MR, 29.2 ± 5.2 µM. In addition, the inhibition constant (Ki) on V29F MR was 40.1 ± 0.2 µM; at T24S MR, 209 ± 9.9 µM; on V22A MR it was 1080 ± 460 µM; on Y54F MR it was 13.1 ± 1.1 µM; at F52W MR, 63 ± 10 µM; on Y54L MR, 25.7 ± 1.9 µM. The inhibitory constant (Ki) is 179 ± 23.3 µM on V29A MR; 611 ± 12.2 µM on A25V MR; 640 ± 190 µM at F52W/Y54W MR; 2900 ± 700 µM at V29D MR; 69.3 ± 2.2 µM on V26A MR; 760 ± 31 µM on E317Q MR. In addition, at N197A MR, the inhibition constant (Ki) was 216 ± 6 µM.

With `O=NN(O)c1ccccc1` [cupferron], the Ki in assay [1] (setting [2]) was 2.7 µM.

For the molecule `O=P(O)(O)C(O)c1ccccc1` (stereo not drawn) [α-hydroxybenzylphosphonate], the Ki in assay [1] (setting [2]) is 4.7 µM.
